# Measured values as given in patent publication US8404825B2, “Method for producing monoterpene and monoterpinoid compounds and use thereof” (Board of Regents of the Nevada System of Higher Education, …, priority 2008, dated 2013).
# Tests used:
# [1] = system: recombinant Ipi12D04; test: Functional assay of recombinant Ipi12D04 (pyridine nucleotide assay at 340 nm, GC-MS of products); assay type: biochemical, Ips pini; conditions: for reaction product of reduction by Ipi12D04 enzyme (stereoisomer by chiral GC): in the presence of NADPH, chiral column, compared with racemic standard
# Protocol: Enzyme activity is determined by a pyridine nucleotide (PN) binding assay that monitors production or consumption of NADH/NADPH by measuring the absorbance of the catalysts reaction at 340 nm using a spectrophotometer. The reactions include reaction buffer (0.1 M NaP pH 7.8 and 1.1 mM EDTA), enzyme, PN, and substrate (monoterpene) in a 1 ml total volume and the absorbance was measured over time at room temperature. The volatiles produced from the reactions were extracted three times with pentane:ether (1:1) spiked with 200 n g/ml n-octanol (internal standard) and concentrated to approximately 100 ul with nitrogen gas. The samples were directly analyzed by coupled GC-MS at the Nevada Proteomics Center at UNR.
# Enzyme activity was determined by a pyridine nucleotide (PN) binding assay that monitored production or consumption of NADH/NADPH spectrophotometrically. The reaction mixture included reaction buffer (0.1 M NaP pH 7.8 and 1.1 mM EDTA), enzyme, PN, and substrate (monoterpene) in a 1 ml total volume. The absorbance was measured over time at room temperature. The reactions were extracted three times with pentane:ether (1:1) spiked with 200 ng/ml n-octanol (internal standard) to extract monoterpenoids and concentrated to approximately 100 ul with nitrogen gas. The samples were directly analyzed by coupled GC-MS at the Nevada Proteomics Center at UNR.
# Biochemical reactions catalyzed by recombinant Ipi12D04, as determined by functional assays, are summarized below. In general, the enzyme functions as an oxidoreductase, using NAD(P) or NAD(P)H as cofactors, depending on whether it is oxidizing or reducing a substrate. […] Negative controls for all reactions included media from un-infected cells.
# [2] = system: western populations of Ips pini; conditions: cited from earlier work
# [3] = system: Ips. typographus; conditions: cited from earlier work
# [4] = system: I. calligraphus; conditions: southeast U.S.; cited from earlier work
structure (smiles),measurement,setting,value
C=CC(=C)CC(=O)CC(C)C [ipsenone],reaction product of reduction by Ipi12D04 enzyme (stereoisomer by chiral GC),[1],reaction product was pure (−)-ipsdienol
"C=CC(=C)CC(O)C=C(C)C (racemic) [racemic ipsdienol, ipsdienol]",reaction product of oxidation by Ipi12D04 enzyme,"[1]; with NADP, GC and mass spectrum compared with ipsdienone standard",converts racemic ipsdienol to ipsdienone
same,attractiveness as aggregation pheromone,[2],not attractive at all
C=CC(=C)CC(=O)C=C(C)C [ipsdienone],reaction product of reduction by Ipi12D04 enzyme (stereoisomer by chiral GC),[1],reaction product was pure (−)-ipsdienol
C=CC(=C)C[C@@H](O)CC(C)C [(+)-ipsenol],expected conversion by Ipi12D04 enzyme,[1]; enzyme incubated with both NAD(P) and NAD(P)H,readily converted to (−)-ipsenol
C=CC(=C)C[C@@H](O)CC(C)C [ipsenol],behavioural response,[3],anti-aggregation pheromone
"C=CC(=C)CC(O)C=C(C)C (single isomer, unassigned; (+)) [(+)-ipsdienol]",behavioural response (attraction / dispersal),[4],dispersed
"C=CC(=C)CC(O)C=C(C)C (single isomer, unassigned; (-)) [(−)-ipsdienol, 2-methyl-6-methylene-2,7-octadien-4-ol]",behavioural response (attraction / dispersal),[4],attracted
